One substance from article PMC4961957, “Dose-Dependent Suppression of Cytokine production from T cells by a Novel Phosphoinositide 3-Kinase Delta Inhibitor” (Scientific Reports, 2016) can be followed below.

For this experiment, the target named is T1, PI3Kδ (p110δ) (Homo sapiens, UniProt O00329).
T1 construct: gene PIK3CD
The experiment is described as follows: FRET-based in vitro kinase assay; class I PI3K binding also seen in KinomeScan ATP-site competition panel ([…]). It is filed as biochemical.

T1 sequence (O00329 whole entry): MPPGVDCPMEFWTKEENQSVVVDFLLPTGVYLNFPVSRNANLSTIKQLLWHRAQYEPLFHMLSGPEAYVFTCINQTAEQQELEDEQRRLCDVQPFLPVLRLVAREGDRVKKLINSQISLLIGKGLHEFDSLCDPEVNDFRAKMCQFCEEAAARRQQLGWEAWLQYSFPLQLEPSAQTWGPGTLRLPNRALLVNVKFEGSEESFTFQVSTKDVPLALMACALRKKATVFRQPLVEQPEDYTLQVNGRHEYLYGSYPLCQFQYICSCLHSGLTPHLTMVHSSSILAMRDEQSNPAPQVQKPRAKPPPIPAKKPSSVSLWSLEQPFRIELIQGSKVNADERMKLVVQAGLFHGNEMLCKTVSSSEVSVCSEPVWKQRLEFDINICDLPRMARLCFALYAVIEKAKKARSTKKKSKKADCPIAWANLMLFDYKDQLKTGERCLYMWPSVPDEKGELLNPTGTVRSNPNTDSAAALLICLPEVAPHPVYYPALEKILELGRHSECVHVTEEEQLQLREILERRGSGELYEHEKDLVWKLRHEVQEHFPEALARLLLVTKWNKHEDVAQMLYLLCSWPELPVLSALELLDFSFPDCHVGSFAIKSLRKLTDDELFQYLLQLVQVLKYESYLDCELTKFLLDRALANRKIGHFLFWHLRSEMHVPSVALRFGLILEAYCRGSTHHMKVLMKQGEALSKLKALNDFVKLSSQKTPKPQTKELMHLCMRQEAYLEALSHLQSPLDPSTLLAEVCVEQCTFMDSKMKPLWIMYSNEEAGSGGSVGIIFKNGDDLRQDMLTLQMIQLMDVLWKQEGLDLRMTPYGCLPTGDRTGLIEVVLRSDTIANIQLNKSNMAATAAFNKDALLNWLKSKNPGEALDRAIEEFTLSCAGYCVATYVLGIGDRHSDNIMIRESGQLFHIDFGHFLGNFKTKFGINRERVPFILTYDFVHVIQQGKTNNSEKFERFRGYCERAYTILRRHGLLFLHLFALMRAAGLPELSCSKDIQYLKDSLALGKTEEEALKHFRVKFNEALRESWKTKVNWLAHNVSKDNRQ

As for GS-649443 [Compound B], the IC50 (in general, the concentration needed to halve the response being measured) worked out at 0.28 nM. This counts as sub-nanomolar.
